Data reported in ChEMBL document CHEMBL3244111, “Nitrones. 7. alpha-Quinoxalinyl-N-substituted nitrone 1,4-dioxides” (J Med Chem, 1977).
Active and inactive are the calls of the source. The calls are words filed in the database; no cut-off is given here.

How the values were obtained:
Salmonella typhimurium = experiment: In vivo antibacterial activity against Salmonella typhimurium infected in CF1 mouse assessed as protection against bacterial infection administered as two doses; format: functional, Salmonella enterica subsp. enterica serovar Typhimurium; conditions: Salmonella enterica
Salmonella [1] = experiment: In vivo antibacterial activity against Salmonella typhosa infected in CF1 mouse assessed as protection against bacterial infection administered as two doses; format: functional
Shigella dysenteriae = experiment: In vivo antibacterial activity against Shigella dysenteriae infected in CF1 mouse assessed as protection against bacterial infection administered as two doses; format: functional
Streptococcus pneumoniae = experiment: In vivo antibacterial activity against Diplococcus pneumoniae I infected in CF1 mouse assessed as protection against bacterial infection administered as two doses; format: functional
Listeria monocytogenes = experiment: In vivo antibacterial activity against Listeria monocytogenes infected in CF1 mouse assessed as protection against bacterial infection administered as two doses; format: functional
Staphylococcus aureus = experiment: In vivo antibacterial activity against Staphylococcus aureus infected in CF1 mouse assessed as protection against bacterial infection administered as two doses; format: functional
Streptococcus pyogenes = experiment: In vivo antibacterial activity against Streptococcus pyogenes infected in CF1 mouse assessed as protection against bacterial infection administered as two doses; format: functional
[2] = Acute toxicity in po dosed mouse administered as single dose; format: organism-based; conditions: in vivo
[3] = Acute toxicity in sc dosed mouse administered as single dose; format: organism-based; conditions: in vivo
[4] = Acute toxicity in ip dosed mouse administered as single dose; format: organism-based; conditions: in vivo
Histomonas meleagridis = experiment: In vivo antiprotozoal activity against Histomonas meleagridis infected in turkey; format: functional, organism-based
Shigella flexneri = experiment: In vivo antibacterial activity against Shigella paradysenteriae infected in CF1 mouse assessed as protection against bacterial infection administered as two doses; format: functional
Escherichia coli = experiment: In vivo antibacterial activity against Escherichia coli infected in CF1 mouse assessed as protection against bacterial infection administered as two doses; format: functional
Klebsiella pneumoniae = experiment: In vivo antibacterial activity against Klebsiella pneumoniae infected in CF1 mouse assessed as protection against bacterial infection administered as two doses; format: functional
Pasteurella multocida = experiment: In vivo antibacterial activity against Pasteurella multocida infected in CF1 mouse assessed as protection against bacterial infection administered as two doses; format: functional
Proteus mirabilis = experiment: In vivo antibacterial activity against Proteus mirabilis infected in CF1 mouse assessed as protection against bacterial infection administered as two doses; format: functional
Proteus vulgaris = experiment: In vivo antibacterial activity against Proteus vulgaris infected in CF1 mouse assessed as protection against bacterial infection administered as two doses; format: functional
Pseudomonas aeruginosa = experiment: In vivo antibacterial activity against Pseudomonas aeruginosa infected in sc dosed CF1 mouse assessed as protection against bacterial infection administered as two doses; format: functional
Salmonella enteritidis = experiment: In vivo antibacterial activity against Salmonella enteriditis infected in CF1 mouse assessed as protection against bacterial infection administered as two doses; format: functional, Salmonella enterica subsp. enterica serovar Enteritidis; conditions: Salmonella enterica
Salmonella [5] = experiment: In vivo antibacterial activity against Salmonella schottmuelleri infected in CF1 mouse assessed as protection against bacterial infection administered as two doses; format: functional

Compound	ED50 (Salmonella typhimurium) [mg/kg]	ED50 (Salmonella [1]) [mg/kg]	ED50 (Shigella dysenteriae) [mg/kg]	ED50 (Streptococcus pneumoniae) [mg/kg]	ED50 (Listeria monocytogenes) [mg/kg]	ED50 (Staphylococcus aureus) [mg/kg]	ED50 (Streptococcus pyogenes) [mg/kg]	LD50 [2] [mg/kg]	LD50 [3] [mg/kg]	LD50 [4] [mg/kg]	Activity (Histomonas meleagridis)	ED50 (Shigella flexneri) [mg/kg]	ED50 (Escherichia coli) [mg/kg]	ED50 (Klebsiella pneumoniae) [mg/kg]	ED50 (Pasteurella multocida) [mg/kg]	ED50 (Proteus mirabilis) [mg/kg]	ED50 (Proteus vulgaris) [mg/kg]	ED50 (Pseudomonas aeruginosa) [mg/kg]	ED50 (Salmonella enteritidis) [mg/kg]	ED50 (Salmonella [5]) [mg/kg]
Cc1c(/C=[N+](\C)[O-])[n+]([O-])c2ccccc2[n+]1[O-]	16	10	62	32	> 100	74	35	> 1000	596	596	inactive	13	10	6	7	18	35	> 250	2	1.5
O=C(N[C@H](CO)[C@H](O)c1ccc([N+](=O)[O-])cc1)C(Cl)Cl [CHLORAMPHENICOL]	16	24	61		> 100	27	27	2640		1320	inactive		41	20	11	52	> 100		29	9
O=[N+]([O-])c1ccc(/C=[N+](/[O-])CCO)o1 [NIFURATRONE]	30	31		> 100	> 100	26	47	518	417		inactive	46	27	39	< 50	53		> 100	47	8
